Results: patent US20140171448A1, “USE OF NICOTINIC ACETYLCHOLINE RECEPTOR ALPHA 7 ACTIVATORS” (NOVARTIS AG, priority 2011, published 2014)

Key:
[1] = target: T1, human neuronal nAChR α4β2 (Homo sapiens, UniProt P17787+P43681); assay: α4β2-nAChR functional assay in human epithelial cell line; assay type: cell-based
T1 construct: expressed in transfected cells; host or cells: human epithelial cell line (named a human embryonic kidney cell line)
Procedure: To assess the activity of the compound of the invention on the human neuronal nAChR α4β2, a similar functional assay is carried out using a human epithelial cell line stably expressing the human α4β2 subtype (Michelmore et al., Naunyn-Schmiedeberg's Arch.

[2] = Oral bioavailability and brain penetration in mice; assay type: in vivo; conditions: 30 μmol/kg p.o.
Procedure: Compounds were orally (30 μmol/kg) administered. Male mice (30-35g, OF1/ICstrain) were sacrificed at indicated time points after oral administration. Trunk-blood was collected in EDTA-containing tubes and the brain was removed and immediately frozen on dry ice.
To 100 μl plasma 10 μl internal standard (1.0 pmol of a compound with solubility and ionization properties similar to test compounds) was added and extracted three times with 500 μl dichloromethane. The combined extracts were then dried under a stream of nitrogen and re-dissolved in 100 μl acetonitrile/water (70% acetonitrile). Brains were weighed and homogenized in water (1:5 w/v). Two 100 μl aliquots of each homogenate+10 μl of internal standard (same standard as used for the plasma samples) were extracted three times with 500 μl dichloromethane and further processed as the plasma samples. Samples were separated on Beckmann high-performance liquid chromatography equipment system with an autosampler (Gilson 233XL).
The limit of detection (LOD), defined as the lowest concentration of the extracted standard sample with a signal to noise ratio of ˜3.

parkinsonian primates = assay: Antidyskinetic effect in parkinsonian primates (MPTP, levodopa-induced dyskinesia); assay type: in vivo, cynomolgus monkeys (Macaca fascicularis); conditions: with levodopa
Procedure: Female ovariectomized cynomolgus monkeys (Macaca fascicularis) are used in the assessment. The animals can be rendered parkinsonian by continuous infusion of 1-methyl-4-phenyl-1,2,3,6-tetrahydropyridine (MPTP) until they develop a stable parkinsonian syndrome. After recuperation, animals are treated daily with levodopa until clear and reproducible dyskinesias are developed.
Monkeys are observed through a one-way screen window in their home cage. They are observed and scored repeatedly at baseline and after a standard s.c. dose of levodopa. Locomotor activity is assessed and followed with an electronic monitoring system. Antiparkinsonian responses are evaluated by measuring the locomotor activity and a Parkinson disability scale (see Hadj Tahar A et al, Clin Neuropharmacol 2000; 23:195-202; and Samadi P et al, Neuropharmacology 2003; 45:954-963). Dyskinesias are closely monitored and scored according to a dyskinesia rating scale (also described in Hadj Tahar A et al; and Samadi P et al) every 15 minutes until the end of the effect. The doses of levodopa are chosen to induce motor activation and reproducible dyskinesia but no excessive agitation.
Monkeys are observed for at least two hours following an oral administration of vehicle. On a subsequent day, the dose of levodopa selected is tested once. The animals are observed (with measures of parkinsonian and dyskinetic scores) for the entire duration of the levodopa effect and are also monitored for locomotor activity. This provides vehicle control values as well as levodopa antiparkinsonian and dyskinesia response data for comparison with combinations of a α7-nAChR agonist/positive allosteric modulator and levodopa. The monkeys are then tested with a α7-nAChR agonist/positive allosteric modulator in combination with a fixed dose of levodopa. A suspension for oral administration of the α7-nAChR agonist/positive allosteric modulator is administered before levodopa. After each dose, the animals are observed (with measures of parkinsonian and dyskinetic scores) for the entire duration of effect and monitored for locomotor activity or any change in behavior (e.g. circling, excitement, lethargy and sleepiness).
Using this protocol, compound A-1 at a dose of 20 mg/kg was tested. Results based on five monkeys (levodopa/benserazide doses: 22.5/50 mg; 65/50 mg; 30/50 mg; 35/50 mg; and 25/50 mg) are shown in FIGS. 1-4.

T1 sequence (P43681 29-627 limits assumed): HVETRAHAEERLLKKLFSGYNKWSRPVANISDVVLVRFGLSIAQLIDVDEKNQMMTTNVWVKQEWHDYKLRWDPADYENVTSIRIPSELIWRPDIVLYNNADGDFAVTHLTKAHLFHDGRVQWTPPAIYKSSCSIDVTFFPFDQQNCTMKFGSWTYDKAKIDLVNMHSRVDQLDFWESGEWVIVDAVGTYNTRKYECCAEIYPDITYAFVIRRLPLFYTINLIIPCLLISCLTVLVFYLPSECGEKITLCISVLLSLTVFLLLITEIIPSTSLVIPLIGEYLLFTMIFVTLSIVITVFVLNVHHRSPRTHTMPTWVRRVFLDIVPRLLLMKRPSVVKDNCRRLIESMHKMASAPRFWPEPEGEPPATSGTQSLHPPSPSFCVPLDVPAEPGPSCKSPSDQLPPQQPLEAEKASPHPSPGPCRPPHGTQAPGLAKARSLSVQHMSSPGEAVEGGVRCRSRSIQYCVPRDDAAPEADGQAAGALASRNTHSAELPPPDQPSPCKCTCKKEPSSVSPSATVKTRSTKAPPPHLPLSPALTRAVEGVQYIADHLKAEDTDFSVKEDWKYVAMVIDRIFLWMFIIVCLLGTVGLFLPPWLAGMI
T1 sequence (P17787 26-502): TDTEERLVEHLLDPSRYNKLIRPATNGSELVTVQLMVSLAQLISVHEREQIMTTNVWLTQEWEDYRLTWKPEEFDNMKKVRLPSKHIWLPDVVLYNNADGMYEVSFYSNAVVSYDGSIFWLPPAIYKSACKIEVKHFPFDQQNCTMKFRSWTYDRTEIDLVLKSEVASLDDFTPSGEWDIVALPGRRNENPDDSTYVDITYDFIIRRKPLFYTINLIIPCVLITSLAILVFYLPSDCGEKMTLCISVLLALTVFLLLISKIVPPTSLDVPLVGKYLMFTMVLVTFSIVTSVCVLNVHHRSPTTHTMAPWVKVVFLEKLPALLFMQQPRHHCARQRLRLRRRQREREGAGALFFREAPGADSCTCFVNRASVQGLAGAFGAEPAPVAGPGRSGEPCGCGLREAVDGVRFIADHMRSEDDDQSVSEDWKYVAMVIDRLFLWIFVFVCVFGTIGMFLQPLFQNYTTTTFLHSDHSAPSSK

C[C@H](OC(=O)N[C@@H]1CN2CCC1CC2)c1ccccc1F [A-1, (S)-(1-aza-bicyclo[2.2.2]oct-3-yl)-carbamic acid (S)-1-(2-fluoro-phenyl)-ethyl ester]
EC50 [1]: > 100 µM
Brain (pmoles/g ± SD) ([2]; 4 hour): 101.6 ± 39.6 pmol/g
concentration at 0.5 h ([2]; male, OF1/IC, mouse, plasma, po, 0.5 hour, read-out: Plasma (pmoles/ml ± SD)): 635 ± 261 pmol/mL
concentration at 1 h ([2]; male, OF1/IC, mouse, plasma, po, 1 hour, read-out: Plasma (pmoles/ml ± SD)): 685 ± 340 pmol/mL
concentration at 2 h ([2]; male, OF1/IC, mouse, plasma, po, 2 hour, read-out: Plasma (pmoles/ml ± SD)): 168 ± 91.3 pmol/mL
concentration at 4 h ([2]; male, OF1/IC, mouse, plasma, po, 4 hour, read-out: Plasma (pmoles/ml ± SD)): 85 ± 54.3 pmol/mL
concentration at 6 h ([2]; male, OF1/IC, mouse, plasma, po, 6 hour, read-out: Plasma (pmoles/ml ± SD)): 29.5 ± 13.8 pmol/mL
concentration at 24 h ([2]; male, OF1/IC, mouse, plasma, po, 24 hour, read-out: Plasma (pmoles/ml ± SD)): 3.8 ± 0.6 pmol/mL
effect on antiparkinsonian activity of levodopa (parkinsonian primates): does not lower the antiparkinsonian activity of levodopa
effect on duration of the antiparkinsonian activity of levodopa (parkinsonian primates): significantly increases the duration of the antiparkinsonian activity seen for levodopa administration
effect on levodopa-induced dyskinesia (parkinsonian primates): significantly reduces levodopa-induced dyskinesia
effect on onset of action of levodopa (parkinsonian primates): does not delay the onset of action of levodopa
